Values of other authors in US8962638B2, “Piperidine inhibitors of janus kinase 3” (Auspex Pharmaceuticals, Inc., priority 2009, dated 2015).

Legend:
[1] = humans, 14C labeled CP-690550, oral

SMILES: C[C@@H]1CCN(C(=O)CC#N)C[C@@H]1N(C)c1ncnc2[nH]ccc12 [CP-690550, 4-methyl-3-(methyl-7H-pyrrolo[2,3-d]pyrimidin-4-ylamino)-beta-oxo-(3R,4R)-1-piperidinepropanenitrile]
- renal excretion of unchanged drug, share of clearance (in vivo): ~30%
- non-renal share of clearance (via hepatic metabolism by CYP3A4/5 and CYP2C19): approximately 70%
- mean terminal phase half-life of unchanged CP-690550 [1]: approximately 3.2 hours
